What was measured:
Assay in all cases: KINOMEscan
[1] = molecular target: T1, FES (Homo sapiens, UniProt P07332); type: binding; conditions: read-out: % Ctrl
T1 construct: purchased DiscoveRx KINOMEscan

[2] = molecular target: T2, PDGFRA (Homo sapiens, UniProt P16234); type: binding; conditions: read-out: % Ctrl
T2 construct: purchased DiscoveRx KINOMEscan

[3] = test system: FLT3(ITD); type: binding, human; conditions: 1 µM
[4] = molecular target: T3, PIK3CA(C420R) (Homo sapiens, UniProt P42336, C420R); type: binding; conditions: read-out: % Ctrl
T3 construct: purchased DiscoveRx KINOMEscan

[5] = molecular target: T4, AKT1 (Homo sapiens, UniProt P31749); type: binding; conditions: read-out: % Ctrl
T4 construct: purchased DiscoveRx KINOMEscan

[6] = molecular target: T5, PIK3CG (Homo sapiens, UniProt P48736); type: binding; conditions: read-out: % Ctrl
T5 construct: purchased DiscoveRx KINOMEscan

[7] = molecular target: T6, PIP5K1C (Homo sapiens, UniProt O60331); type: binding; conditions: read-out: % Ctrl
T6 construct: purchased DiscoveRx KINOMEscan

[8] = molecular target: T7, ANKK1 (Homo sapiens, UniProt Q8NFD2); type: binding; conditions: read-out: % Ctrl
T7 construct: purchased DiscoveRx KINOMEscan

[9] = molecular target: T8, PKN2 (Homo sapiens, UniProt Q16513); type: binding; conditions: read-out: % Ctrl
T8 construct: purchased DiscoveRx KINOMEscan

[10] = molecular target: T9, PRKCI (Homo sapiens, UniProt P41743); type: binding; conditions: read-out: % Ctrl
T9 construct: purchased DiscoveRx KINOMEscan

[11] = molecular target: T10, JAK3(JH1D.-cat.) (Homo sapiens, UniProt P52333); type: binding; conditions: read-out: % Ctrl
T10 construct: JAK3(JH1D.-cat.); purchased DiscoveRx KINOMEscan

[12] = molecular target: T11, RET(V804M) (Homo sapiens, UniProt P07949, V804M); type: binding; conditions: read-out: % Ctrl
T11 construct: purchased DiscoveRx KINOMEscan

[13] = molecular target: T12, RIOK2 (Homo sapiens, UniProt Q9BVS4); type: binding; conditions: read-out: % Ctrl
T12 construct: purchased DiscoveRx KINOMEscan

[14] = molecular target: T13, LIMK2 (Homo sapiens, UniProt P53671); type: binding; conditions: read-out: % Ctrl
T13 construct: purchased DiscoveRx KINOMEscan

[15] = molecular target: T14, CDK4-cyclinD3 (Homo sapiens, UniProt P11802); type: binding; conditions: read-out: % Ctrl
T14 construct: purchased DiscoveRx KINOMEscan

[16] = molecular target: T15, RPS6KA4(KD1-N-t.) (Homo sapiens, UniProt O75676); type: binding; conditions: read-out: % Ctrl
T15 construct: RPS6KA4(KD1-N-t.); purchased DiscoveRx KINOMEscan

[17] = molecular target: T16, RPS6KA5(KD2-C-t.) (Homo sapiens, UniProt O75582); type: binding; conditions: read-out: % Ctrl
T16 construct: RPS6KA5(KD2-C-t.); purchased DiscoveRx KINOMEscan

[18] = molecular target: T17, MAK (Homo sapiens, UniProt P20794); type: binding; conditions: read-out: % Ctrl
T17 construct: purchased DiscoveRx KINOMEscan

[19] = molecular target: T18, RSK3(KD1-N-t.) (Homo sapiens, UniProt Q15349); type: binding; conditions: read-out: % Ctrl
T18 construct: RSK3(KD1-N-t.); purchased DiscoveRx KINOMEscan

[20] = molecular target: T19, MARK1 (Homo sapiens, UniProt Q9P0L2); type: binding; conditions: read-out: % Ctrl
T19 construct: purchased DiscoveRx KINOMEscan

[21] = molecular target: T20, SLK (Homo sapiens, UniProt Q9H2G2); type: binding; conditions: read-out: % Ctrl
T20 construct: purchased DiscoveRx KINOMEscan

[22] = molecular target: T21, SRPK1 (Homo sapiens, UniProt Q96SB4); type: binding; conditions: read-out: % Ctrl
T21 construct: purchased DiscoveRx KINOMEscan

[23] = molecular target: T22, DAPK3 (Homo sapiens, UniProt O43293); type: binding; conditions: read-out: % Ctrl
T22 construct: purchased DiscoveRx KINOMEscan

[24] = molecular target: T23, DDR1 (Homo sapiens, UniProt Q08345); type: binding; conditions: read-out: % Ctrl
T23 construct: purchased DiscoveRx KINOMEscan

[25] = molecular target: T24, TAOK2 (Homo sapiens, UniProt Q9UL54); type: binding; conditions: read-out: % Ctrl
T24 construct: purchased DiscoveRx KINOMEscan

[26] = molecular target: T25, DRAK2 (Homo sapiens, UniProt O94768); type: binding; conditions: read-out: % Ctrl
T25 construct: purchased DiscoveRx KINOMEscan

[27] = molecular target: T26, EGFR(G719S) (Homo sapiens, UniProt P00533, G719S); type: binding; conditions: read-out: % Ctrl
T26 construct: purchased DiscoveRx KINOMEscan

[28] = molecular target: T27, MTOR (Homo sapiens, UniProt P42345); type: binding; conditions: read-out: % Ctrl
T27 construct: purchased DiscoveRx KINOMEscan

[29] = molecular target: T28, EGFR(L747-E749del, A750P) (Homo sapiens, UniProt P00533, A750P/DEL747-749); type: binding; conditions: read-out: % Ctrl
T28 construct: purchased DiscoveRx KINOMEscan

[30] = molecular target: T29, EGFR(L747-S752del, P753S) (Homo sapiens, UniProt P00533, DEL747-752/P753S); type: binding; conditions: read-out: % Ctrl
T29 construct: purchased DiscoveRx KINOMEscan

[31] = molecular target: T30, VPS34 (Homo sapiens, UniProt Q8NEB9); type: binding; conditions: read-out: % Ctrl
T30 construct: purchased DiscoveRx KINOMEscan

[32] = molecular target: T31, p38-alpha (Homo sapiens, UniProt Q16539); type: binding; conditions: read-out: % Ctrl
T31 construct: purchased DiscoveRx KINOMEscan

[33] = molecular target: T32, YANK1 (Homo sapiens, UniProt Q8WU08); type: binding; conditions: read-out: % Ctrl
T32 construct: purchased DiscoveRx KINOMEscan
T32 sequence (Q8WU08 whole entry): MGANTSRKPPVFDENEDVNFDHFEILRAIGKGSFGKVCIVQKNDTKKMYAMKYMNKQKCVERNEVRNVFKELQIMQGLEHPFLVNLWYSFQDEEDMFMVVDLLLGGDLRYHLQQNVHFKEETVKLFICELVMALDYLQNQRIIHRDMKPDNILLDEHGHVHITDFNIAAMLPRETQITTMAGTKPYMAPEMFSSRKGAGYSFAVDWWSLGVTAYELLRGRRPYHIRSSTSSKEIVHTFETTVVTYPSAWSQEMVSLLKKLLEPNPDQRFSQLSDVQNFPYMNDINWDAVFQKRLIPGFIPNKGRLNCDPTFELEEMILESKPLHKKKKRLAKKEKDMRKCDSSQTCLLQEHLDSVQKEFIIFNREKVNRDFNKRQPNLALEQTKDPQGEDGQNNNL

T15 sequence (O75676 1-371 limits assumed): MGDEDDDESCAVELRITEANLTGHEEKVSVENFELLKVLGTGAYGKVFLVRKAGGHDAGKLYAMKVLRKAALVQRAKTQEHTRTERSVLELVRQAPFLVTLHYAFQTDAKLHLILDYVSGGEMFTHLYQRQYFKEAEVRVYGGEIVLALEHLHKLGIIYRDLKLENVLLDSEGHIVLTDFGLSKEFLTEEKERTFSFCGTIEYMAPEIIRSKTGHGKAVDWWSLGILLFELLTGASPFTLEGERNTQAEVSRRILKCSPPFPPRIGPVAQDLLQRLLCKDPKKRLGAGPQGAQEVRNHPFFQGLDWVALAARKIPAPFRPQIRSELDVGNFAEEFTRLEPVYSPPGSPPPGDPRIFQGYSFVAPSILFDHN
T16 sequence (O75582 388-802 limits assumed): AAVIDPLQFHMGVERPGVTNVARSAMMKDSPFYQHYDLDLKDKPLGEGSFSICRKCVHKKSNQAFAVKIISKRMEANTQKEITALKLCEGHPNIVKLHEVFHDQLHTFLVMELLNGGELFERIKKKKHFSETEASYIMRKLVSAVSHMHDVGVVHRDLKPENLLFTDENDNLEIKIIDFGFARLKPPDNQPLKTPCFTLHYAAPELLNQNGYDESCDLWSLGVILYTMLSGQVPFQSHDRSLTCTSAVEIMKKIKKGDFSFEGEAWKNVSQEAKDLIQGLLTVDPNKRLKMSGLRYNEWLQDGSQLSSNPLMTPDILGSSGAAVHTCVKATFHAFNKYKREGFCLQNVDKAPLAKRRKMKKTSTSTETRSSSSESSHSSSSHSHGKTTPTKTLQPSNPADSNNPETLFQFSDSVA
T17 sequence (P20794 whole entry): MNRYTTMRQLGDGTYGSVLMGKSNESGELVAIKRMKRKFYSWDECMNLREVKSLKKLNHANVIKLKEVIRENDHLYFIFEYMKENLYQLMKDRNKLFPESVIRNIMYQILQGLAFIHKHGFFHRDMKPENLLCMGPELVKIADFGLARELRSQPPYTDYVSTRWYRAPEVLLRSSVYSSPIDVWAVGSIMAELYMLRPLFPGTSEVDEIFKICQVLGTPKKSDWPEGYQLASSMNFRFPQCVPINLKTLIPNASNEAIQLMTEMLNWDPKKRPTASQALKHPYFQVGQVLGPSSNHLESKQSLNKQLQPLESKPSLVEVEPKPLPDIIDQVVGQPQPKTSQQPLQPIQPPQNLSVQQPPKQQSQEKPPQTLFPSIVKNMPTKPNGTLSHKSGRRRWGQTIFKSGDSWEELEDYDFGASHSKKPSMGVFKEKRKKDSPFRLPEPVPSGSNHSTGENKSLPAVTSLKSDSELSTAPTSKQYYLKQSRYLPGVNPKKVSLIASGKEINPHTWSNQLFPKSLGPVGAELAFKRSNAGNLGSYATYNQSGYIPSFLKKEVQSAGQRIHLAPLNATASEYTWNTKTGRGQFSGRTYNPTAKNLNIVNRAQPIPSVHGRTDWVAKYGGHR
T3 sequence (P42336 whole entry C420R): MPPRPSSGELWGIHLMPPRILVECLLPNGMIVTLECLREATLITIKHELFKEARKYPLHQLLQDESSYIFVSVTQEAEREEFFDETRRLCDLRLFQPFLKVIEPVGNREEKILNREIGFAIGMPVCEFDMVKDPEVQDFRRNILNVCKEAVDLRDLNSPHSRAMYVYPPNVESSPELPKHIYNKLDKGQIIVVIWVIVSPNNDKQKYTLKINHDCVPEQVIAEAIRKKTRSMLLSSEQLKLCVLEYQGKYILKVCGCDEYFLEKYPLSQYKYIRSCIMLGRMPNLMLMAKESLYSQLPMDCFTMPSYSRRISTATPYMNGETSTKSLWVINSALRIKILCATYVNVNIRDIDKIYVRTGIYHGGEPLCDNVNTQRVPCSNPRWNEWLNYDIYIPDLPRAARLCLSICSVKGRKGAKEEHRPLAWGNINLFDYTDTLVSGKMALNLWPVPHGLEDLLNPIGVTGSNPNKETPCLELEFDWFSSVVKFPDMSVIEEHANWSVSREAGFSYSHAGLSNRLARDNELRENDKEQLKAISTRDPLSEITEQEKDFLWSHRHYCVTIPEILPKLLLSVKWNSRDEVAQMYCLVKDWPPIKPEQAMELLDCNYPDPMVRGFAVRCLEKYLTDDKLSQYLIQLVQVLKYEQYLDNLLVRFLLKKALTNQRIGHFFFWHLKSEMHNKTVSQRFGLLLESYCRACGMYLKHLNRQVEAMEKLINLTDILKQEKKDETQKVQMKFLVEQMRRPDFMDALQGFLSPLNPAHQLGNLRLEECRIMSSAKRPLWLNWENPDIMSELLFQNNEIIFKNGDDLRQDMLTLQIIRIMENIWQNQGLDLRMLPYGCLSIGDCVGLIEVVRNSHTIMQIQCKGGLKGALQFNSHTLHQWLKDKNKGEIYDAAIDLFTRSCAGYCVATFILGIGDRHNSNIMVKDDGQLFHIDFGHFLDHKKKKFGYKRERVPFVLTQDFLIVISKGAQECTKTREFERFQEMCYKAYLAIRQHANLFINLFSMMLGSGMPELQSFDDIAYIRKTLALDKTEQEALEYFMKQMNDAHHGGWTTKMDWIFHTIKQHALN
T5 sequence (P48736 whole entry): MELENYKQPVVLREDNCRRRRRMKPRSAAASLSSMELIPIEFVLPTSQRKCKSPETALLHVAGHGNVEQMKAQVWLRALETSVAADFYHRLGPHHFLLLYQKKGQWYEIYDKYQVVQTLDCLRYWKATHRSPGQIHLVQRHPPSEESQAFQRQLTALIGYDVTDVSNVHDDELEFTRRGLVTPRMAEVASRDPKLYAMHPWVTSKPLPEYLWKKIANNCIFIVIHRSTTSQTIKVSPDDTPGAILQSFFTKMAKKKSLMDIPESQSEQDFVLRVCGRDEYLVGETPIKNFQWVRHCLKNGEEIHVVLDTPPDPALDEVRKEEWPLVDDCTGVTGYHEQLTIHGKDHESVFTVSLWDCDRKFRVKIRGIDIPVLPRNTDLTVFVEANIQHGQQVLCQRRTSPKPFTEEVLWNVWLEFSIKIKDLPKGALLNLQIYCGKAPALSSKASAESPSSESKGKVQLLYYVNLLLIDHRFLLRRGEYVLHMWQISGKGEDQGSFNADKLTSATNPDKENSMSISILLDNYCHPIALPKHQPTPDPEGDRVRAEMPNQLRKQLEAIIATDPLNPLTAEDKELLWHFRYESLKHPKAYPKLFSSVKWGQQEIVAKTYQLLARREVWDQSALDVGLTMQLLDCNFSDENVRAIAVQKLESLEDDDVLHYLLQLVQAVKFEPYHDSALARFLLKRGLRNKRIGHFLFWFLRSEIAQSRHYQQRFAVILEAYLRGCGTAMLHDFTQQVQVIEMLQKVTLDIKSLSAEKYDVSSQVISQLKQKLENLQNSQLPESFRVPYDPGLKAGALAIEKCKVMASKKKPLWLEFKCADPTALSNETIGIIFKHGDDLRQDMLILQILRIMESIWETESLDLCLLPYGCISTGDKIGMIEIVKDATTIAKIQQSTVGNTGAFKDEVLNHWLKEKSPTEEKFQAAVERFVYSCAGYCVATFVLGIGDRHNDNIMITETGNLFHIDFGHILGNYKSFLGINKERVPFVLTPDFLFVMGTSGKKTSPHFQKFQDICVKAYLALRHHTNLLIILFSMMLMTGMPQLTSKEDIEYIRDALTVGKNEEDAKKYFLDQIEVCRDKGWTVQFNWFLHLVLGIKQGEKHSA
T7 sequence (Q8NFD2 whole entry): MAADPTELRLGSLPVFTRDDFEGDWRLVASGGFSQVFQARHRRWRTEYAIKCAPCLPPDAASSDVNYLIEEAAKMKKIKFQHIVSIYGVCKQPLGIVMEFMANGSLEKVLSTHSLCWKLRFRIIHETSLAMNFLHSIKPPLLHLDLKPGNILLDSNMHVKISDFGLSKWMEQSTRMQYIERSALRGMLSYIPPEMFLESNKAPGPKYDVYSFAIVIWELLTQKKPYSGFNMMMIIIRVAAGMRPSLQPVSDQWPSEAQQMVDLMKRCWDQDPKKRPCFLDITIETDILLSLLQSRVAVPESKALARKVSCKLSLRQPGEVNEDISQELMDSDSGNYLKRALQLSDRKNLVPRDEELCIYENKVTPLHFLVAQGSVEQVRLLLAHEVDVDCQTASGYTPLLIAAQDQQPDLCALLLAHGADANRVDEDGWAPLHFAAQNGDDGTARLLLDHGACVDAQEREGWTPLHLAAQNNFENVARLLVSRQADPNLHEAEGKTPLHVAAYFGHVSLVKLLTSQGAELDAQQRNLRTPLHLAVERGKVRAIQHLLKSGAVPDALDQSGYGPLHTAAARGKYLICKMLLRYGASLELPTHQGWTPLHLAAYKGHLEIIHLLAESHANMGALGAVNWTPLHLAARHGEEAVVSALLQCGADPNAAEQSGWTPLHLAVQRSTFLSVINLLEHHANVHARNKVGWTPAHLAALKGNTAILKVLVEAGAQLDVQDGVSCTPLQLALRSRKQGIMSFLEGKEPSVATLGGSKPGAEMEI
T10 sequence (P52333 822-1124 limits assumed): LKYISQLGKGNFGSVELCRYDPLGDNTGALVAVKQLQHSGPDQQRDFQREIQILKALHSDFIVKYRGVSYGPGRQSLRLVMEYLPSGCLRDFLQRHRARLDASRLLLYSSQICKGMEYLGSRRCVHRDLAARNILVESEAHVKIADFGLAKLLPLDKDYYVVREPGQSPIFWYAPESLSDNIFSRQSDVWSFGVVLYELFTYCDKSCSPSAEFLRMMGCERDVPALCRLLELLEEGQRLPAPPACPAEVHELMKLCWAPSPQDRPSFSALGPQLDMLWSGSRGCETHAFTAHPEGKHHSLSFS

SMILES: CN1CCC(CNc2ccc3ncc(C(=O)Nc4cccc(OC(F)(F)F)c4)n3n2)CC1 [Cpd 2]
- remaining binding at 1 µM [1]: 87%
- remaining binding at 1 µM [2]: 81%
- % Ctrl [3]: 100%
- remaining binding at 1 µM [4]: 100%
- remaining binding at 1 µM [5]: 100%
- remaining binding at 1 µM [6]: 100%
- remaining binding at 1 µM [7]: 74%
- remaining binding at 1 µM [8]: 94%
- remaining binding at 1 µM [9]: 79%
- remaining binding at 1 µM [10]: 85%
- remaining binding at 1 µM [11]: 100%
- remaining binding at 1 µM [12]: 97%
- remaining binding at 1 µM [13]: 99%
- remaining binding at 1 µM [14]: 99%
- remaining binding at 1 µM [15]: 100%
- remaining binding at 1 µM [16]: 92%
- remaining binding at 1 µM [17]: 92%
- remaining binding at 1 µM [18]: 94%
- remaining binding at 1 µM [19]: 93%
- remaining binding at 1 µM [20]: 100%
- remaining binding at 1 µM [21]: 79%
- remaining binding at 1 µM [22]: 95%
- remaining binding at 1 µM [23]: 75%
- remaining binding at 1 µM [24]: 92%
- remaining binding at 1 µM [25]: 100%
- remaining binding at 1 µM [26]: 80%
- remaining binding at 1 µM [27]: 100%
- remaining binding at 1 µM [28]: 100%
- remaining binding at 1 µM [29]: 84%
- remaining binding at 1 µM [30]: 92%
- remaining binding at 1 µM [31]: 75%
- remaining binding at 1 µM [32]: 96%
- remaining binding at 1 µM [33]: 100%
